For one molecule, Ki results are on record in BindingDB's records for PubMed 7853174 (Merck Research Laboratories, 1995).

This test has as its target T1, Type-2 angiotensin II receptor (Rattus norvegicus, UniProt P35351).
T1 sequence (P35351 whole entry): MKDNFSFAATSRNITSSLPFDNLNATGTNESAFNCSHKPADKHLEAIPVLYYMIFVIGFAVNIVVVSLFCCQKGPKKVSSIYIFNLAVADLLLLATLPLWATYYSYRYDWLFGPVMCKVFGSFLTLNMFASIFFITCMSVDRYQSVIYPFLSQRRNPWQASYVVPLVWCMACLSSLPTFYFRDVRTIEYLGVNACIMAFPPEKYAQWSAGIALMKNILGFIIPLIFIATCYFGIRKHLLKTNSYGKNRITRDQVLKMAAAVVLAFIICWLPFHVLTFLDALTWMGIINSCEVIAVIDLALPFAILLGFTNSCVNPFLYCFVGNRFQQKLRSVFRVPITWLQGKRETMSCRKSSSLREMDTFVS

In general, Ki refers to a dissociation constant, usually derived from enzyme kinetics or from competition with a known ligand. `CCCc1nc(C(F)(F)C(F)(F)F)c(C(=O)O)n1Cc1ccc(-c2ccccc2-c2nnn[nH]2)cc1` [CAS_124750-95-4] returned a Ki of 5.77 µM.
